This note sets out measurements from ChEMBL document CHEMBL3739292, “Synthesis and Biological Evaluation of Polar Functionalities Containing Nitrodihydroimidazooxazoles as Anti-TB Agents” (ACS Med Chem Lett, 2015).

Assay [1] has as its system Mycobacterium tuberculosis. The assay can be described thus: Antimicrobial activity against multidrug-resistant Mycobacterium tuberculosis by resazurin microtiter assay. Format: functional.
Assay [2] concerns Mycobacterium tuberculosis. The assay can be described thus: Antimicrobial activity against rifamycin-resistant Mycobacterium tuberculosis by resazurin microtiter assay. Format: functional. (In general: Resazurin is reduced to fluorescent resorufin, in cell work by metabolically active cells.)

≈ marks a conversion by molar mass, not a printed value. Where only a bound is given, the exact number is not on record here.

As usually defined, the MIC is the lowest concentration found to suppress growth. `C[C@]1(COc2ccc(N3CCN(S(=O)(=O)c4ccc(F)cc4)CC3)cc2)Cn2cc([N+](=O)[O-])nc2O1`: the MIC is more than 8 µg/mL in assay [1] and 1 µg/mL (≈ 1.93 µM) in assay [2].
With `C[C@]1(COc2ccc(NC(=O)Nc3ccc(Cl)cc3)cc2)Cn2cc([N+](=O)[O-])nc2O1`, the MIC in assay [1] is more than 8 µg/mL; in assay [2] it was 0.67 µg/mL (≈ 1.51 µM).
The like results for `C[C@]1(COc2ccc(S(=O)(=O)N3CCOCC3)cc2)Cn2cc([N+](=O)[O-])nc2O1` were, in that order, 2 µg/mL (≈ 4.71 µM) and 1 µg/mL (≈ 2.36 µM).
Turning to `CO[C@H]1/C=C/O[C@@]2(C)Oc3c(C)c(O)c4c(O)c(c(/C=N/N5CCN(C)CC5)c(O)c4c3C2=O)NC(=O)/C(C)=C\C=C\[C@H](C)[C@H](O)[C@@H](C)[C@@H](O)[C@@H](C)[C@H](OC(C)=O)[C@@H]1C` [RIFAMPIN], the MIC in assay [1] was found to be 128 µg/mL (≈ 156 µM); in assay [2] it was 256 µg/mL (≈ 311 µM).
`C[C@]1(COc2ccc(S(=O)(=O)N3CCCCC3)cc2)Cn2cc([N+](=O)[O-])nc2O1`: the results for the MIC in assay [1] and in assay [2] were more than 8 µg/mL and 3.34 µg/mL (≈ 7.91 µM), respectively.
The like results for `C[C@]1(COc2ccc(-n3cc(COc4ccc(OC(F)(F)F)cc4)nn3)cc2)Cn2cc([N+](=O)[O-])nc2O1` were, in that order, 0.12 µg/mL (≈ 0.225 µM) and 0.06 µg/mL (≈ 0.113 µM).
`CCOc1ccc(NC(=O)Nc2ccc(OC[C@@]3(C)Cn4cc([N+](=O)[O-])nc4O3)cc2)cc1`: the MIC in assay [1] is more than 8 µg/mL; in assay [2], 1 µg/mL (≈ 2.21 µM).
Regarding `COc1ccc(NC(=S)Nc2ccc(OC[C@@]3(C)Cn4cc([N+](=O)[O-])nc4O3)cc2)cc1`, the figures for the MIC in assay [1] and in assay [2] were more than 8 µg/mL and 2 µg/mL (≈ 4.39 µM), respectively.
For `C[C@]1(COc2ccc(N3CCC(Oc4ccc(OC(F)(F)F)cc4)CC3)cc2)Cn2cc([N+](=O)[O-])nc2O1` the same measures were 0.02 µg/mL (≈ 0.0374 µM) and 0.005 µg/mL (≈ 0.00935 µM).
As to `COc1c(N2CCNC(C)C2)c(F)cc2c(=O)c(C(=O)O)cn(C3CC3)c12` (centres undefined) [GATIFLOXACIN], in assay [1], the MIC was 0.5 µg/mL (≈ 1.33 µM).
